Data published in patent US9138457B2, “Therapeutic modulation of ocular surface lubrication” (THE REGENTS OF THE UNIVERSITY OF CALIFORNIA, priority 2008, dated 2015).
Where two headings read alike, the source gives them in different places.

Tested on: PRG4 mRNA
Details: primary human corneal epithelial cells; for increase in PRG4 mRNA levels relative to the control levels at Day 0: 10 nM DHT
Method: (§1) Cells were grown in keratinocyte serum free media until reaching about 80% confluence. Cells (n=3 wells/treatment/experiment) were then incubated with either vehicle or 10 nM dihydrotestosterone (DHT) for up to 5 days. At designated times cells were processed for total RNA isolation and analysis of PRG4 mRNA mRNA by RT-PCR.
as §1, with “Methods. Cells were” for “Cells were”, “by RT-PCR. Results.” for “by RT-PCR.”

Q: Which results are given for C[C@]12CCC(=O)C[C@@H]1CC[C@@H]1[C@@H]2CC[C@]2(C)[C@@H](O)CC[C@@H]12 [DHT, dihydrotestosterone]?
A: increase in PRG4 mRNA levels relative to the control levels at Day 0 (3 days of hormone exposure): 10.3 fold; increase in PRG4 mRNA levels relative to the control levels at Day 0 (4 days of hormone exposure): 3.6 fold; increase in PRG4 mRNA levels relative to the control levels at Day 0 (5 days of hormone exposure): 2.8 fold; increase in PRG4 mRNA content relative to that of vehicle-treated controls (another experiment, treatment of cells for 5 days with DHT): 46 fold
